Laboratory results taken from article PMC12348585, “Semi-Synthesis, Anti-Leukemia Activity, and Docking Study of Derivatives from 3α,24-Dihydroxylup-20(29)-en-28-Oic Acid” (Molecules, 2025).

How the values were obtained:
[1] = Cell viability assay in normal mononuclear cells; assay type: cell-based, human; details: human
Experimental: (§1) All compounds were dissolved in dimethyl sulfoxide (DMSO) at a concentration of 20 mg/mL. In all assays, culture medium containing 0.1% DMSO was used as the negative control, while dasatinib was included as the positive control. Normal mononuclear cells (MNCs) were included as the normal cell control. All experiments were performed in triplicate. Normal mononuclear cells (MNCs) were isolated from peripheral blood mononuclear cells obtained from healthy human donors. Cell collection was conducted in accordance with institutional guidelines, including written informed consent from each participant. All procedures were approved by Ethics and Scientific Committee of the Mexican Institute of Social Security (IMSS, ethical approval number: CNIC R-2021-785-025). The MNCs were purified using FicollPaque Plus (Pharmacia Biotech, Uppsala, Sweden) by centrifugation at 400× g for 30 min at room temperature, following the manufacturer’s protocol. The resulting cells were resuspended in RPMI-1640 medium supplemented with 10% fetal bovine serum (FBS) and counted using a hemocytometer after trypan blue staining, confirming a viability of 95% [56]. […] After incubation, both leukemic cells and MNCs were collected, washed with phosphate-buffered saline (PBS), and stained with DAPI (500 ng/mL) for 15 min in darkness, following the manufacturer’s instructions. Fluorescence was analyzed using a FACSVerse flow cytometer (BD Bioscience, San Jose, CA, USA). Flow cytometry data were analyzed using FlowJo^TM software (version 10.9). […] All experiments were performed in triplicate, and results were expressed as means ± standard errors of the means (SEMs). Statical analysis was performed using one-way analysis of variance (ANOVA), followed by Dunnett’s post hoc test to compare treated groups against the control.

[2] = tested on: leukemia cell lines (CCRF-CEM, REH, JURKAT, MOLT-4, THP-1); test: Cell viability assay, all leukemia cell lines tested (summary statements); assay type: cell-based
Experimental: (§2) Cell lines were cultured in RPMI 1640 medium (Roswell Park Memorial Institute medium) supplemented with 10% fetal bovine serum (FBS) and 1% penicillin–streptomycin. Cultures were maintained at 37 °C in a humidified incubator with 5% CO2. All biological evaluations were performed using cell between passages 3 and 4. All compounds were dissolved in dimethyl sulfoxide (DMSO) at a concentration of 20 mg/mL. In all assays, culture medium containing 0.1% DMSO was used as the negative control, while dasatinib was included as the positive control. Normal mononuclear cells (MNCs) were included as the normal cell control. All experiments were performed in triplicate. Leukemic cell lines and normal mononuclear cells (MNCs) were used to evaluate the cytotoxicity of the compounds. Leukemic cells (1 × 10^5 cells/well) were cultured in 96-well plates and treated with increasing concentrations of compounds (0.02, 0.2, 2.0, and 20 µM) for 48 h. After incubation, both leukemic cells and MNCs were collected, washed with phosphate-buffered saline (PBS), and stained with DAPI (500 ng/mL) for 15 min in darkness, following the manufacturer’s instructions. Fluorescence was analyzed using a FACSVerse flow cytometer (BD Bioscience, San Jose, CA, USA). Flow cytometry data were analyzed using FlowJo^TM software (version 10.9). […] All experiments were performed in triplicate, and results were expressed as means ± standard errors of the means (SEMs). Statical analysis was performed using one-way analysis of variance (ANOVA), followed by Dunnett’s post hoc test to compare treated groups against the control.

[3] = tested on: peripheral blood mononuclear cells (MNCs); test: Cell viability assay in normal mononuclear cells; assay type: cell-based, human
Experimental: as §1

REH = test: Cell viability assay (DAPI, flow cytometry), REH; assay type: cell-based; details: for IC50: Homo sapiens, REH, 48 h, mean ± SEM, N/A: not active
Experimental: as §2

MOLT-4 = test: Cell viability assay (DAPI, flow cytometry), MOLT-4; assay type: cell-based; details: Homo sapiens, MOLT-4; 48 h; mean ± SEM; N/A: not active
Experimental: as §2

THP-1 cell line = test: Apoptosis assay (annexin V-FITC/DAPI flow cytometry), THP-1; assay type: cell-based
Experimental: (§3) Since compound T1c was the only derivative that decreased the cell viability of leukemic cells (IC50 ≤ 20 µΜ), without affecting viability in normal MNC cells, its mode of action to exert cytotoxic effects was evaluated by flow cytometry techniques, determining the apoptotic effect at 48 h, using ½ IC50 and IC50 concentrations obtained in the viability assay in the different leukemia cell lines. Dasatinib at different concentrations was included as a positive control. Cell death was quantified by dual staining with annexin V-FITC and DAPI. Annexin V binds to externalized phosphatidylserine residues during early and late apoptosis, whereas DAPI penetrates membrane-compromised cells, distinguishing between late apoptotic and necrotic cells. The total percentage of apoptotic cells was calculated as the sum of early and late apoptotic populations. The results were normalized to 100% with respect to the negative control.
(§4) Apoptosis induction was evaluated by flow cytometry. Cells (1 × 10^5 cells/well) were cultured in 96-well plates and exposed to the compounds at two concentrations (½ and 1 × IC50). After 48 h of treatment, the cells were washed with phosphate-buffered saline (PBS) and stained with annexin V-FITC (BD Bioscience) for 15 min in the dark. Following a second PBS wash, the cells were stained with DAPI (500 ng/mL) for 15 min in darkness. The stained samples were subsequently analyzed on a FACSVerse cytometer (BD Bioscience, San Jose, CA, USA).

CCRF-CEM = test: Cell viability assay (DAPI, flow cytometry), CCRF-CEM; assay type: cell-based; details: for IC50: Homo sapiens, CCRF-CEM, 48 h, mean ± SEM, N/A: not active
Experimental: as §2

JURKAT cell line = test: Apoptosis assay (annexin V-FITC/DAPI flow cytometry), JURKAT; assay type: cell-based
Experimental: as §3, §4

JURKAT = test: Cell viability assay (DAPI, flow cytometry), JURKAT; assay type: cell-based; details: for IC50: Homo sapiens, Jurkat, 48 h, mean ± SEM, N/A: not active
Experimental: as §2

MOLT-4 cell line = test: Apoptosis assay (annexin V-FITC/DAPI flow cytometry), MOLT-4; assay type: cell-based
Experimental: as §3, §4

THP-1 = test: Cell viability assay (DAPI, flow cytometry), THP-1; assay type: cell-based; details: for IC50: Homo sapiens, THP-1, 48 h, mean ± SEM, N/A: not active
Experimental: as §2

CCRF-CEM cell line = test: Apoptosis assay (annexin V-FITC/DAPI flow cytometry), CCRF-CEM; assay type: cell-based
Experimental: as §3, §4

[4] = THP-1, positive control (dasatinib), 48 h
[5] = positive control (dasatinib), 48 h
[6] = MOLT-4, positive control (dasatinib), 48 h
[7] = ratio of IC50 in the MNC line over IC50 in the leukemia cell line

With `C=C(C)C1CCC2(C(=O)O)CCC3(C)C(CCC4C5(C)CCC(O)C(C)(CO)C5CCC43C)C12` (stereo not drawn) [Compound T1, 3α,24-dihydroxylup-20(29)-en-28-oic acid] as the molecule, how does the IC50 at 48 h [1] read?
Its IC50 at 48 h is over 200 µM.

What about the “IC50 across all leukemia cell lines tested” value ([2]; 48 h, summary over CCRF-CEM, REH, JURKAT, MOLT-4, THP-1) of the same molecule?
The value was “no activity”.

For `C=C(C)C1CCC2(C(=O)O)CCC3(C)C(CCC4C5(C)CCC(OC)C(C)(CO)C5CCC43C)C12` (stereo not drawn) [Compound T1a, 3α-methoxy-24-hydroxylup-20(29)-en-28-oic acid], which “IC50 MNCs” value [3] is on record?
Its value is “no activity”.

And the IC50 (REH)?
Its IC50 is over 20 µM.

With `Cc1nc(Nc2ncc(C(=O)Nc3c(C)cccc3Cl)s2)cc(N2CCN(CCO)CC2)n1` [Dasatinib, dasatinib, reference compound] as the molecule, how does the IC50 (REH) read?
Its IC50 is 5.43 ± 0.3 µM.

What about the IC50 (MOLT-4) of the same molecule?
Its IC50 is 2.63 ± 0.1 µM.

What about the “apoptosis rate (early + late)” value (THP-1 cell line; [4]) of the same molecule?
The value was 32.14 ± 3.15%.

What about the early apoptotic cells (THP-1 cell line; [4]) of the same molecule?
Its early apoptotic cells is 7.21%.

What about the late apoptotic cells (THP-1 cell line; [4]) of the same molecule?
Its late apoptotic cells is 24.93%.

What about the IC50 (CCRF-CEM) of the same molecule?
The IC50 was 10.8 ± 1.2 µM.

What about the “apoptosis rate (early + late)” value (JURKAT cell line; [5]) of the same molecule?
Its value is 97.19 ± 0.11%.

What about the early apoptotic cells (JURKAT cell line; [5]) of the same molecule?
The early apoptotic cells was 0.59%.

What about the late apoptotic cells (JURKAT cell line; [5]) of the same molecule?
Its late apoptotic cells is 96.60%.

And the IC50 (JURKAT)?
Its IC50 is 5.26 ± 0.5 µM.

And the early apoptotic cells (MOLT-4 cell line; [6])?
The early apoptotic cells was 1.40%.

And the late apoptotic cells (MOLT-4 cell line; [6])?
The late apoptotic cells was 94.74%.

What about the “apoptosis rate (early + late)” value (MOLT-4 cell line; MOLT-4, positive control (dasatinib), 48 h, normalized to negative control) of the same molecule?
Its value is 96.13 ± 0.71%.

What about the IC50 (THP-1) of the same molecule?
The IC50 was 4.66 ± 0.3 µM.

For `C=C(C=O)C1CCC2(C(=O)O)CCC3(C)C(CCC4C5(C)CCC(O)C(C)(CO)C5CCC43C)C12` (stereo not drawn) [Compound T1c, 3α,24-dihydroxy-30-oxolup-20(29)-en-28-oic acid], which IC50 at 48 h [1] is on record?
The IC50 at 48 h was over 200 µM.

What about the IC50 (REH) of the same molecule?
Its IC50 is over 20 µM.

What about the “SI: selectivity index, REH” value (REH; [7]) of the same molecule?
Its value is 53.55.

What about the “apoptosis rate (early + late)” value (CCRF-CEM cell line; IC50, 48 h) of the same molecule?
The value was 97.13 ± 0.36%.

What about the early apoptotic cells (CCRF-CEM cell line; IC50, 48 h) of the same molecule?
Its early apoptotic cells is 16.92%.

And the late apoptotic cells (CCRF-CEM cell line; IC50, 48 h)?
Its late apoptotic cells is 80.21%.

What about the “apoptosis rate (early + late)” value (CCRF-CEM cell line; ½ IC50, 48 h) of the same molecule?
The value was 62.40 ± 1.57%.

And the early apoptotic cells (CCRF-CEM cell line; ½ IC50, 48 h)?
The early apoptotic cells was 16.98%.

What about the late apoptotic cells (CCRF-CEM cell line; ½ IC50, 48 h) of the same molecule?
Its late apoptotic cells is 45.42%.

And the IC50 (MOLT-4)?
Its IC50 is 13.9 ± 0.7 µM.

And the “apoptosis rate (early + late)” value (THP-1 cell line; THP-1, IC50, 48 h)?
Its value is 52.23 ± 1.69%.

What about the early apoptotic cells (THP-1 cell line; THP-1, IC50, 48 h) of the same molecule?
Its early apoptotic cells is 22.84%.

What about the late apoptotic cells (THP-1 cell line; THP-1, IC50, 48 h) of the same molecule?
The late apoptotic cells was 29.39%.

And the “apoptosis rate (early + late)” value (THP-1 cell line; THP-1, ½ IC50, 48 h)?
The value was 29.40 ± 2.66%.

What about the early apoptotic cells (THP-1 cell line; THP-1, ½ IC50, 48 h) of the same molecule?
Its early apoptotic cells is 14.50%.

And the late apoptotic cells (THP-1 cell line; THP-1, ½ IC50, 48 h)?
The late apoptotic cells was 14.90%.

And the IC50 (CCRF-CEM)?
Its IC50 is 17.8 ± 1 µM.

And the “SI: selectivity index, CCRF-CEM” value (CCRF-CEM; [7])?
Its value is 75.02.

What about the “apoptosis rate (early + late)” value (JURKAT cell line; IC50, 48 h) of the same molecule?
The value was 96.37 ± 0.49%.

And the early apoptotic cells (JURKAT cell line; IC50, 48 h)?
The early apoptotic cells was 47.61%.

And the late apoptotic cells (JURKAT cell line; IC50, 48 h)?
The late apoptotic cells was 48.72%.

And the “apoptosis rate (early + late)” value (JURKAT cell line; ½ IC50, 48 h)?
The value was 67.14 ± 2.18%.

What about the early apoptotic cells (JURKAT cell line; ½ IC50, 48 h) of the same molecule?
The early apoptotic cells was 30.60%.

What about the late apoptotic cells (JURKAT cell line; ½ IC50, 48 h) of the same molecule?
Its late apoptotic cells is 36.55%.

And the IC50 ([2]; 48 h, summary over CCRF-CEM, REH, JURKAT, MOLT-4, THP-1, read-out: IC50 across all leukemia cell lines tested)?
The IC50 was 12.9 to 24.9 µM.

And the “SI (selectivity against leukemia cell lines vs MNCs)” value ([2]; summary statement)?
The value was over 10.

What about the IC50 (JURKAT) of the same molecule?
The IC50 was 18.7 ± 1.4 µM.

What about the “SI: selectivity index, JURKAT” value (JURKAT; [7]) of the same molecule?
Its value is 71.46.

And the “apoptosis rate (early + late)” value (MOLT-4 cell line; MOLT-4, IC50, 48 h)?
The value was 94.58 ± 0.45%.

And the early apoptotic cells (MOLT-4 cell line; MOLT-4, IC50, 48 h)?
Its early apoptotic cells is 30.12%.

What about the late apoptotic cells (MOLT-4 cell line; MOLT-4, IC50, 48 h) of the same molecule?
Its late apoptotic cells is 64.46%.

What about the “apoptosis rate (early + late)” value (MOLT-4 cell line; MOLT-4, ½ IC50, 48 h) of the same molecule?
The value was 69.91 ± 2.17%.

What about the early apoptotic cells (MOLT-4 cell line; MOLT-4, ½ IC50, 48 h) of the same molecule?
Its early apoptotic cells is 41.15%.

And the late apoptotic cells (MOLT-4 cell line; MOLT-4, ½ IC50, 48 h)?
Its late apoptotic cells is 28.76%.

What about the IC50 (THP-1) of the same molecule?
Its IC50 is 12.9 ± 0.1 µM.

And the “SI: selectivity index, THP-1” value (THP-1; [7])?
Its value is 103.46.
